Patent US12421238B2, “Selective dihydropyrrolopyrimidine JAK2 inhibitors” (CHENGDU JINRUI FOUNDATION BIOTECH CO., LTD., priority 2019, dated 2025)

Legend:
JAK3 = biological target: T1, JAK3 (Homo sapiens, UniProt P52333); test: Kinase activity test on JAK3 (Caliper EZ Reader conversion rate)
T1 sequence (P52333 1-1124): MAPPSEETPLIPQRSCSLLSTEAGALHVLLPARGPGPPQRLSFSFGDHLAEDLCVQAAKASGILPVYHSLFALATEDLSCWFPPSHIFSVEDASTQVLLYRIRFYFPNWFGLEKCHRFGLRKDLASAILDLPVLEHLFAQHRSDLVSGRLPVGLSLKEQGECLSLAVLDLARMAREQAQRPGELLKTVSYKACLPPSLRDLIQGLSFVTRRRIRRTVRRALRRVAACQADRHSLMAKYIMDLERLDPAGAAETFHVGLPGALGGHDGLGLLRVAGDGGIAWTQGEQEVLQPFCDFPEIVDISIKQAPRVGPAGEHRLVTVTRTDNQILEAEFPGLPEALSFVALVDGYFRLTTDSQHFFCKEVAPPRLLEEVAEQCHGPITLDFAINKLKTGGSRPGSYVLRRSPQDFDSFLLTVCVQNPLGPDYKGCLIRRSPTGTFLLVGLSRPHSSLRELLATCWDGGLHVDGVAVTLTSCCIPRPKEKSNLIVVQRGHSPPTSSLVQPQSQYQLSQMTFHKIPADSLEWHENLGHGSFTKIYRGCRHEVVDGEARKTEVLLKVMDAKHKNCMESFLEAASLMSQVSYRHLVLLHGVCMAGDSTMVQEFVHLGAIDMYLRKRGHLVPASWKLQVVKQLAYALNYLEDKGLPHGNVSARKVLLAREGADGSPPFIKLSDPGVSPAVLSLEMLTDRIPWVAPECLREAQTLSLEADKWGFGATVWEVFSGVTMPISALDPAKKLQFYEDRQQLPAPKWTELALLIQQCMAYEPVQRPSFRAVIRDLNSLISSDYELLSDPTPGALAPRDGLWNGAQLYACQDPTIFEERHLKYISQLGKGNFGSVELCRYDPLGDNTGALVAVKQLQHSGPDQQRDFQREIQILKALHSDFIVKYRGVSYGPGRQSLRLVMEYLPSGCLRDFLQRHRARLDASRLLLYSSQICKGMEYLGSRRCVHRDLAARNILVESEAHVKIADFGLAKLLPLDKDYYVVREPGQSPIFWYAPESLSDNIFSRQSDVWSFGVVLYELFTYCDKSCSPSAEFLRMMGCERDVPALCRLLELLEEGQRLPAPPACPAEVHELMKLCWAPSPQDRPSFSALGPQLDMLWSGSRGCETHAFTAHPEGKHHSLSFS

TF-1 = TF-1 cell proliferation experiment (CellTiter Glo); format: cell-based; conditions: Homo sapiens; TF-1 cells, 72 hours; read-out: TF-1 (μM), proliferation inhibition
HEL92.1.7 = HEL92.1.7 cell proliferation experiment (Cell Titer-Glo); format: cell-based; conditions: Homo sapiens, HEL 92.1.7; HEL92.1.7 cells, 72 hours
JAK1 = JAK1 (Homo sapiens, UniProt P23458); test: Kinase activity test on JAK1 (Caliper EZ Reader conversion rate)
Chain of JAK1 (P23458 whole entry): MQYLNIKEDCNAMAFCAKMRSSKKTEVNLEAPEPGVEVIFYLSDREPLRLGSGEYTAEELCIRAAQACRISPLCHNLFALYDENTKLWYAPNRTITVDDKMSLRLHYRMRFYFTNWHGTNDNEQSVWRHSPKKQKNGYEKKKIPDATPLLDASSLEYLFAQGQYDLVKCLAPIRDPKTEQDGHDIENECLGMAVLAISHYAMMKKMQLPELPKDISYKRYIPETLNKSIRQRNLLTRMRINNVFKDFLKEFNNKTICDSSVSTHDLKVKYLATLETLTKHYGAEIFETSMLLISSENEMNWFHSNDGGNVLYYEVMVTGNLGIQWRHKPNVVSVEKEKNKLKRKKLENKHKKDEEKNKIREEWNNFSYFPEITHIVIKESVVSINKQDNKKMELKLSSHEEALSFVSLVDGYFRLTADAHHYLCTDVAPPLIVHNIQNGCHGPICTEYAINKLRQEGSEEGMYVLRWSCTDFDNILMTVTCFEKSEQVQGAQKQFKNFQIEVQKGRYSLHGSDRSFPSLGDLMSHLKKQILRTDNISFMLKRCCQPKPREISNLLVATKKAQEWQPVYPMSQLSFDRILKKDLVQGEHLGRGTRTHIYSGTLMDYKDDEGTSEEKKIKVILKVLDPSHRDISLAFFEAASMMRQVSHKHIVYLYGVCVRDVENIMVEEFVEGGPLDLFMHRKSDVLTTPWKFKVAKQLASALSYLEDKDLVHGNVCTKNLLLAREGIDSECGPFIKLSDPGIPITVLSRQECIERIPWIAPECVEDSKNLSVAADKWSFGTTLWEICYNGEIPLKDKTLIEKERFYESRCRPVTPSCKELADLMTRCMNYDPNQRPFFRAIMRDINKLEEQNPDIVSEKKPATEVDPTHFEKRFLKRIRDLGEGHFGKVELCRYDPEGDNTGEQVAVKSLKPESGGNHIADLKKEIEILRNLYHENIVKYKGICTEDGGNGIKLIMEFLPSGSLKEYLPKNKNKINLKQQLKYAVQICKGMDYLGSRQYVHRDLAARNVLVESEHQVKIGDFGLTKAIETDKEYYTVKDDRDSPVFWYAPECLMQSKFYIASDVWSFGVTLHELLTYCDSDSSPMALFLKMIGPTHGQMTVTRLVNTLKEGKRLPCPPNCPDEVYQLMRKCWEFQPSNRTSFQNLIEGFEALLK

[1] = Pharmacokinetic test in SD rats, intragastric administration; format: in vivo; conditions: rat, po, single intragastric administration, 25 mg/kg, plasma; for Cmax: read-out: Blood concentration Cmax; for AUC(0-t): read-out: Curve area AUClast; for half-life: read-out: Half life t1/2 (converted); for Tmax: read-out: Time to peak Tmax
Experimental: SD rats were used as the test animals.
Standard curve and preparation and processing of quality control samples:
Stock solution was diluted with 50% acetonitrile/water solution to obtain standard working solutions of 0.04, 0.10, 0.20, 0.40, 1.00, 2.00, 4.00 μg/mL, and quality control working solutions of 0.10, 1.00, 3.00 μg/mL. 2.50 μL of standard curve working solutions and quality control working solutions were added to 47.5 μL of blank rat plasma, respectively, to obtain standard curve solutions having analyte concentrations of 2.00, 5.00, 10.00, 20.00, 50.00, 100.00, 200.00 ng/mL and quality control samples having concentrations of 5.00, 50.00, and 150.00 ng/mL. 200 μL of acetonitrile (containing 5 ng/mL of the internal standard loratadine) was added. After vortexing for 3 minutes, the solutions were centrifuged at 15000 rpm at 4° C. for 15 minutes. 100 μL of the supernatant was taken for LC-MS/MS analysis. WinNonlin® 8.0 was used to calculate the experimental results.

[2] = Acute toxicity test, single oral administration to ICR mice (MTD); format: in vivo; conditions: ICR, mouse, in vivo, po, read-out: MTD (maximum tolerated dose)
JAK2 = JAK2 (Homo sapiens, UniProt O60674); test: Kinase activity test on JAK2 (Caliper EZ Reader conversion rate); conditions: for JAK1/JAK2 / JAK3/JAK2: ratio of IC50 values; for JAK1/JAK2: selectivity for JAK2 over JAK1; for JAK3/JAK2: selectivity for JAK2 over JAK3
Chain of JAK2 (O60674 whole entry): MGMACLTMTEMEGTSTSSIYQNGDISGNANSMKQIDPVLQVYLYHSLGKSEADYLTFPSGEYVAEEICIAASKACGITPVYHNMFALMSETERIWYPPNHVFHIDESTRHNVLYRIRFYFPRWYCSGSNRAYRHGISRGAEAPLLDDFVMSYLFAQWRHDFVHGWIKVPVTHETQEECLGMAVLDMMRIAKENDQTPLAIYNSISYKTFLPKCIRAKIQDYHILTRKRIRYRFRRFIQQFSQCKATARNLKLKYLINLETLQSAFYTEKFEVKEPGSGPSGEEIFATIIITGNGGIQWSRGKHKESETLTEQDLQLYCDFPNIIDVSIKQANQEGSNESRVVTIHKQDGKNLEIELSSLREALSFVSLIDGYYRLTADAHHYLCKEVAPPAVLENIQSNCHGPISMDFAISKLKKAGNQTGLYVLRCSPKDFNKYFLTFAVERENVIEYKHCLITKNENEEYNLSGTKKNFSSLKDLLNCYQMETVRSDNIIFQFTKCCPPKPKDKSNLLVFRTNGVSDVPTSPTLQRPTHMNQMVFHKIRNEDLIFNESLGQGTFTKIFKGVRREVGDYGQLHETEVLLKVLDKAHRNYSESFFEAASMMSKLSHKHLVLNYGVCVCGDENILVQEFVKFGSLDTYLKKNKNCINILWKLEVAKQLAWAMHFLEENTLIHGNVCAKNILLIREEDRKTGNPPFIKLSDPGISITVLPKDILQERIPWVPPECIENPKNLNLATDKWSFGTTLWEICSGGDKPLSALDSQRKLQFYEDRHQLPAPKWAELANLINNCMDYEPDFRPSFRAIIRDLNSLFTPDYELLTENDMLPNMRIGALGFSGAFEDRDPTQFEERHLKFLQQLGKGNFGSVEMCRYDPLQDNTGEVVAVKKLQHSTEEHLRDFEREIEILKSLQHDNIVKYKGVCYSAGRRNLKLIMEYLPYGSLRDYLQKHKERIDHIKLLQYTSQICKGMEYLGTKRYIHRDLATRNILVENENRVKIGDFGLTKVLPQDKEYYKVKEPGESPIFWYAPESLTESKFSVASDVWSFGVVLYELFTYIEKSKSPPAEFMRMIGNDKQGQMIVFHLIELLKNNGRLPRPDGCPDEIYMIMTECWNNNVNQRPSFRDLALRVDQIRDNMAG

ICR mice = test: Acute toxicity test, single oral administration to ICR mice (MTD); format: in vivo

SMILES	IC50 (JAK3)	IC50 (JAK1)	IC50 (JAK2)	JAK1/JAK2 (JAK2)	JAK3/JAK2 (JAK2)	IC50 (TF-1)	IC50 (HEL92.1.7)	Cmax [1]	AUC(0-t) [1]	half-life [1]	Tmax [1]	MTD at 6 days [2]	MTD (maximum tolerated dose) (ICR mice)
CC(C)(C)NS(=O)(=O)c1cccc(N2CCc3cnc(Nc4ccc(OCCN5CCCC5)cc4)nc32)c1 [Compound I-1]	1260 nM	210 nM	2.5 nM	84	504	0.15 µM	0.23 µM	998 ng/mL	798 ng·h/mL	5.8 h	1 h	> 2000 mg/kg	–
CC(C)(C)NS(=O)(=O)c1cccc(N2CCc3cnc(Nc4ccc(OCCN5CCNCC5)cc4)nc32)c1 [Compound I-2]	980 nM	189 nM	1.1 nM	172	891	0.21 µM	0.3 µM	1020 ng/mL	839 ng·h/mL	6 h	1.5 h	≥ 1000 mg/kg	1500 mg/kg
CC(C)(C)NS(=O)(=O)c1cccc(N2CCc3cnc(Nc4ccc(OCCN5CCOCC5)cc4)nc32)c1 [Compound I-3]	877 nM	100 nM	1 nM	100	877	0.18 µM	0.19 µM	1230 ng/mL	903 ng·h/mL	5.9 h	1.5 h	–	–
CC(C)(C)NS(=O)(=O)c1cccc(N2CCc3cnc(Nc4ccc(OCCN5CCS(=O)(=O)CC5)cc4)nc32)c1 [Compound I-6]	890 nM	97 nM	0.75 nM	129	1187	0.15 µM	0.35 µM	–	–	–	–	–	–
CC(C)(C)NS(=O)(=O)c1cccc(N2CCc3cnc(Nc4ccc(CN5CCSCC5)cc4)nc32)c1 [Compound I-13]	865 nM	89 nM	1 nM	89	865	0.27 µM	0.31 µM	979 ng/mL	955 ng·h/mL	5.5 h	2 h	≥ 1000 mg/kg	–
CC(C)(C)NS(=O)(=O)c1cccc(N2CCc3cnc(Nc4ccc(OCCN5CCSCC5)cc4)nc32)c1 [Compound I-14]	998 nM	102 nM	1.1 nM	93	907	0.28 µM	0.43 µM	1230 ng/mL	900 ng·h/mL	6.9 h	1.5 h	–	–
CC(C)(C)NS(=O)(=O)c1cccc(N2CCc3cnc(Nc4ccc(N5CCCCC5)cc4)nc32)c1 [Compound I-18]	1110 nM	109 nM	0.7 nM	156	1588	0.15 µM	0.2 µM	–	–	–	–	–	–
CC(C)(C)NS(=O)(=O)c1cccc(N2CCc3cnc(Nc4ccc(CN5CCCC5)cc4)nc32)c1 [Compound I-22]	873 nM	105 nM	0.6 nM	175	1455	0.22 µM	0.24 µM	–	–	–	–	–	–
Cc1cnc(Nc2ccc(OCCN3CCCC3)cc2)nc1Nc1cccc(S(=O)(=O)NC(C)(C)C)c1 [Fedratinib, reference compound]	–	–	–	–	–	1.57 µM	0.58 µM	579 ng/mL	559 ng·h/mL	4 h	1.5 h	250 mg/kg	–

The remaining molecules from weak to strong by IC50 (JAK3), led by results:

IC50 (JAK3)	IC50 (JAK1)	IC50 (JAK2)	JAK1/JAK2 (JAK2)	JAK3/JAK2 (JAK2)	SMILES	IC50 (TF-1)	IC50 (HEL92.1.7)	Cmax [1]	AUC(0-t) [1]	half-life [1]	Tmax [1]	MTD at 6 days [2]	MTD (maximum tolerated dose) (ICR mice)
1560 nM	221 nM	2.2 nM	100	709	CC(C)(C)NS(=O)(=O)c1cccc(N2CCc3cnc(Nc4ccc(N5CCOCC5)cc4)nc32)c1 [Compound I-17]	0.14 µM	0.25 µM	–	–	–	–	–	–
1390 nM	203 nM	2 nM	101	695	CC(C)(C)NS(=O)(=O)c1cccc(N2CCc3cnc(Nc4ccc(N5CCNCC5)cc4)nc32)c1 [Compound I-16]	0.15 µM	0.21 µM	–	–	–	–	–	–
1330 nM	191 nM	1.7 nM	112	782	CC(C)(C)NS(=O)(=O)c1cccc(N2CCc3cnc(Nc4ccc(CN5CCS(=O)(=O)CC5)cc4)nc32)c1 [Compound I-9]	0.21 µM	0.17 µM	–	–	–	–	–	–
1230 nM	99 nM	1.1 nM	90	1118	CC(C)(C)NS(=O)(=O)c1cccc(N2CCc3cnc(Nc4ccc(OCCN5CCCCC5)cc4)nc32)c1 [Compound I-5]	0.22 µM	0.18 µM	1120 ng/mL	812 ng·h/mL	6.1 h	1.5 h	–	–
1000 nM	151 nM	1.2 nM	126	833	CCN1CCN(Cc2ccc(Nc3ncc4c(n3)N(c3cccc(S(=O)(=O)NC(C)(C)C)c3)CC4)cc2)CC1 [Compound I-8]	0.23 µM	0.33 µM	–	–	–	–	–	–
988 nM	101 nM	0.8 nM	126	1235	CN1CCC(c2ccc(Nc3ncc4c(n3)N(c3cccc(S(=O)(=O)NC(C)(C)C)c3)CC4)cc2)CC1 [Compound I-21]	0.15 µM	0.22 µM	–	–	–	–	–	–
987 nM	100 nM	0.5 nM	200	1974	CC(C)(C)NS(=O)(=O)c1cccc(N2CCc3cnc(Nc4ccc(CC5CCOCC5)cc4)nc32)c1 [Compound I-10]	0.19 µM	0.2 µM	–	–	–	–	–	–
980 nM	105 nM	0.8 nM	131	1225	CC(C)(C)NS(=O)(=O)c1cccc(N2CCc3cnc(Nc4ccc(CN5CCOCC5)cc4)nc32)c1 [Compound I-11]	0.17 µM	0.24 µM	–	–	–	–	–	–
900 nM	103 nM	0.9 nM	114	1000	CN1CCC(Cc2ccc(Nc3ncc4c(n3)N(c3cccc(S(=O)(=O)NC(C)(C)C)c3)CC4)cc2)CC1 [Compound I-7]	0.19 µM	0.25 µM	–	–	–	–	–	–
879 nM	98 nM	0.7 nM	140	1256	CN1CCN(Cc2ccc(Nc3ncc4c(n3)N(c3cccc(S(=O)(=O)NC(C)(C)C)c3)CC4)cc2)CC1 [Compound I-12]	0.2 µM	0.22 µM	–	–	–	–	–	–
